Converted amounts (≈) assume the structure as drawn.
Assays:
Pseudomonas aeruginosa = assay: Antibacterial MIC assay, serial dilution; assay type: cell-based; settings: for Selectivity index (CC50/MIC) P. aeruginosa: CC50 Vero cells / MIC; for MIC: Pseudomonas aeruginosa, range from biological replicates, read-out: MIC P. aeruginosa
Method: (§1) Media and solutions were autoclaved or sterile filtered prior to use and mani pulations were carri ed out in a laminar flow hood. Antibacterial t esting was performed in polypropylene 96-well flat bottom plates. The minimal inhibitory concentration of blasticidin S (1) hydrochloride, methyl ester (3) trihydrochloride, P10 (2) tri-T FA , phenet hyl amide (4) tri -T FA , an d blastimidines M 19– 22, A, 29–32, P 37–40, and C 43–46 (salt forms as described in the te xt) were assessed against Staphylococcus aureus ΔNorA, S. aureus ATCC 6538P, methicillin-resistant S. aureus (MRSA) ATCC 43300, Enterococcus faecalis ATCC 29212, vancomycin- resistant Enterococcus, Klebsiella pneumoniae ATCC 29665, Pseudomonas aeruginosa,and Acinetobacter baumannii ATCC 17978 using serial dilutions. Doxycycline (Gold Bio) as a positive control and the vehicle as a negative control. Stock solutions of each compound were prepared at 2.56 mg/mL in 50% DMSO/water and serially diluted in 50% DMSO/water to create master plates. From the master plates, 10 μ L o f each dilution was applied to test plates using a Bravo automated liquid transfer system (Agilent).
(§2) Bacteria previously grown overnight (37 °C, 120–200 RPM), in LB broth were diluted to an OD600 of 0.05 in cation-adjusted Mueller-Hinton broth (CAMHB), grown to an OD600 of ~0.5, and diluted to an OD600 of 0.004 in CAMHB . These diluted cultures were applied to the test plates (190 μL per test well) resulting in final concentrations of the test compounds of 128–1 μg/ m L.
(§3) Growth controls (wells with inoculated media but no vehicle or test compounds) were included to assess any potential toxicity from the vehicle. Th e plates were in cubated at 37 °C for 16–18 h, except fo r VRE and E. faecalis, which w ere in cub ated at 37 °C fo r 24 h. Inh ibition was determined by measuring the optical density at 600 nm (OD60 0) with a Cytation 3 pl ate read er (BioTek). The optical density measurem ents were no rmalized to the positive and negative controls and the vehicle and growth controls were compared and found to b e indistinguishable, indicating no toxicity from […]
(§4) the vehicle used. The MIC was the lowest concentration that inhibited >90% of growth. Two biological replicates were performed in duplicate. MIC values are reported as a range from […]

[1] = tested on: Enterococcus faecalis ATCC 29212; assay: Antibacterial MIC assay, serial dilution; assay type: cell-based; settings: for Selectivity index (CC50/MIC) E. faecalis 29212: CC50 Vero cells / MIC; for MIC: Enterococcus faecalis, ATCC 29112 / ATCC 29212, 24 h, read-out: MIC E. faecalis ATCC 29112
Method: as §1, §2, §3, §4

[2] = tested on: Vancomycin resistant Enterococcus faecium NR-31909 (VRE); assay: Antibacterial MIC assay, serial dilution; assay type: cell-based; settings: for Selectivity index (CC50/MIC) VRE NR-31909: CC50 Vero cells / MIC; for MIC: Enterococcus faecium, VRE, 24 h, read-out: MIC Vancomycin resistant Enterococcus faecium NR-31909 (VRE)
Method: as §1, §2, §3, §4

[3] = tested on: Klebsiella pneumoniae ATCC 29665; assay: Antibacterial MIC assay, serial dilution; assay type: cell-based; settings: for Selectivity index (CC50/MIC) K. pneumoniae: CC50 Vero cells / MIC; for MIC: Klebsiella pneumoniae, ATCC29665, range from biological replicates, read-out: MIC K. pneumoniae ATCC-29665
Method: as §1, §2, §3, §4

[4] = tested on: Acinetobacter baumannii ATCC 17978; assay: Antibacterial MIC assay, serial dilution; assay type: cell-based; settings: ATCC17978, range from biological replicates
Method: as §1, §2, §3, §4

[5] = tested on: Vancomycin resistant E. faecalis NR-31972 (VRE); assay: Antibacterial MIC assay, serial dilution; assay type: cell-based, Enterococcus faecalis; settings: for Selectivity index (CC50/MIC) VRE NR-31972: CC50 Vero cells / MIC; for MIC: Enterococcus faecalis, VRE, 24 h, read-out: MIC Vancomycin resistant E. faecalis NR-31972 (VRE)
Method: as §1, §2, §3, §4

[6] = tested on: Methicillin resistant S. aureus (MRSA) USA300; assay: Antibacterial MIC assay, serial dilution; assay type: cell-based, Staphylococcus aureus; settings: for Selectivity index (CC50/MIC) MRSA USA300: CC50 Vero cells / MIC; for MIC: Staphylococcus aureus, read-out: MIC Methicillin resistant S. aureus (MRSA) USA300
[7] = tested on: Methicillin resistant Staphylococcus epidermidis (MRSE) ATCC 35984 NRS101; assay: Antibacterial MIC assay, serial dilution; assay type: cell-based; settings: for Selectivity index (CC50/MIC) MRSE 35984: CC50 Vero cells / MIC; for MIC: Staphylococcus epidermidis, read-out: MIC Methicillin resistant Staphylococcus epidermidis (MRSE) ATCC 35984 NRS101
[8] = tested on: Escherichia coli BAA-2452; assay: Antibacterial MIC assay, serial dilution; assay type: cell-based; settings: BAA2452, read-out: MIC Escherichia coli BAA-2452
[9] = Cytotoxicity assay (MTS/PMS); assay type: cell-based; settings: monkey, Vero cells (monkey kidney epithelial cells); 24 h treatment, MTS/PMS, average of three biological replicates; read-out: CC50 against Vero cells
Method: The potential cytotoxic eff ect of the test compounds was investigated using Vero cells (monkey kidney epitheli al cells) following est ablished protocols.3 Briefly, Vero cells were plated into 96-well plates supplemented with Dulbecco's Modified Eagle Medium (DMEM) containing 10% fetal bovine serum (FBS). The cells were placed in a humidified 37 °C environment for incubation with 5% CO₂ for 24 h to allow proper adherence and growth. Following the incubation period, the culture medium was replaced with fresh DMEM containing serial dilutions of the test compounds, while the v ehicle alon e w as used as a negative control. The treated cells were incubated for an additional 24 h. To assess cell viability, the MTS/PMS reagent was added to each well and incubat ed for 4 h. A microplate reader (S ynergy H1, BioTek, USA) was used to m easure absorbance at 490 nm. Al l experiments wer e cond ucted usingthree biologi cal replicates .
Ta b l e S2. CC50 valuesa (µg/mL) against Vero cells […]
aValues at which the cell viability (normalized to vehicle control) was 50%. […]

S. aureus ATCC 6538P = assay: Antibacterial MIC assay, serial dilution; assay type: cell-based, Staphylococcus aureus; settings: for Selectivity index (CC50/MIC) S. aureus 6538P: CC50 Vero cells / MIC; for MIC: Staphylococcus aureus, ATCC 6538P / ATCC 6539P, read-out: MIC S. aureus ATCC 6539P
Method: as §1, §2, §3, §4

S. aureus ΔNorA = assay: Antibacterial MIC assay, serial dilution; assay type: cell-based, Staphylococcus aureus; settings: for Selectivity index (CC50/MIC) S. aureus ΔNorA: CC50 Vero cells / MIC; for MIC: Staphylococcus aureus, read-out: MIC S. aureus ∆NorA
Method: as §1, §2, §3, §4

MRSA ATCC 43300 = assay: Antibacterial MIC assay, serial dilution; assay type: cell-based, Staphylococcus aureus; settings: for Selectivity index (CC50/MIC) MRSA 43300: CC50 Vero cells / MIC; for MIC: Staphylococcus aureus, read-out: MIC MRSA ATCC 43300
Method: as §1, §2, §3, §4

Row | Structure (SMILES) | Selectivity index (CC50/MIC) P. aeruginosa (Pseudomonas aeruginosa) | MIC (Pseudomonas aeruginosa) | Selectivity index (CC50/MIC) E. faecalis 29212 [1] | MIC [1] | MIC [2] | MIC [3] | MIC [4] | Selectivity index (CC50/MIC) VRE NR-31972 [5] | MIC [5] | Selectivity index (CC50/MIC) MRSA USA300 [6] | MIC [6] | Selectivity index (CC50/MIC) MRSE 35984 [7] | MIC [7] | MIC [8] | CC50 at 24 h [9] | Selectivity index (CC50/MIC) S. aureus 6538P (S. aureus ATCC 6538P) | MIC (S. aureus ATCC 6538P) | Selectivity index (CC50/MIC) S. aureus ΔNorA (S. aureus ΔNorA) | MIC (S. aureus ΔNorA) | Selectivity index (CC50/MIC) MRSA 43300 (MRSA ATCC 43300) | further results
1 | CN(CC[C@H](N)CC(=O)N[C@H]1C=C[C@H](n2ccc(NC(=O)c3ccc(NC(=O)[C@@](C)(N)CO)cc3)nc2=O)O[C@@H]1C(N)=O)C(=N)N [Blastimidine A5] | <0.5 | > 128 mg/L | 1.0 | 64 mg/L (≈ 99.7 µM) | 32 mg/L (≈ 49.9 µM) | 32 mg/L (≈ 49.9 µM) | > 128 mg/L | <0.5 | > 128 mg/L | 0.5 | 128 mg/L (≈ 199 µM) | 0.5 | 128 mg/L (≈ 199 µM) | 32 mg/L (≈ 49.9 µM) | 65 mg/L (≈ 101 µM) | 1.0 | 64 mg/L (≈ 99.7 µM) | 0.5 | 128 mg/L (≈ 199 µM) | 0.5 | Selectivity index (CC50/MIC) VRE NR-31909 [2]: 2.0; Selectivity index (CC50/MIC) K. pneumoniae [3]: 2.0; MIC (MRSA ATCC 43300): 128 mg/L (≈ 199 µM)
2 | CN(CC[C@H](N)CC(=O)N[C@H]1C=C[C@H](n2ccc(NC(=O)c3ccc(NC(=O)[C@@](C)(N)CO)cc3)nc2=O)O[C@@H]1C(=O)O)C(=N)N [Blastimidine C5] | <1.4 | > 128 mg/L | <1.4 | > 128 mg/L | > 128 mg/L | > 128 mg/L | > 128 mg/L | <1.4 | > 128 mg/L | <1.4 | > 128 mg/L | <1.4 | > 128 mg/L | > 128 mg/L | 177 mg/L (≈ 275 µM) | <1.4 | > 128 mg/L | <1.4 | > 128 mg/L | <1.4 | Selectivity index (CC50/MIC) VRE NR-31909 [2]: <1.4; Selectivity index (CC50/MIC) K. pneumoniae [3]: <1.4; MIC (MRSA ATCC 43300): > 128 mg/L
3 | CC(=O)Nc1ccc(C(=O)Nc2ccn([C@H]3C=C[C@H](NC(=O)C[C@@H](N)CCN(C)C(=N)N)[C@@H](C(=O)NCCc4ccccc4)O3)c(=O)n2)cc1 [Blastimidine P4] | >2.0 | 128 mg/L (≈ 186 µM) | >8.0 | 32 mg/L (≈ 46.6 µM) | > 128 mg/L | > 128 mg/L | > 128 mg/L | >8.0 | 32 mg/L (≈ 46.6 µM) | >4.0 | 64 mg/L (≈ 93.2 µM) | >16 | 16 mg/L (≈ 23.3 µM) | > 128 mg/L | > 256 mg/L | >8.0 | 32 mg/L (≈ 46.6 µM) | >24 | 8 to 16 mg/L (≈ 11.6 to 23.3 µM) | >2.0 | MIC (MRSA ATCC 43300): 128 mg/L (≈ 186 µM)
4 | CNc1ccc(C(=O)Nc2ccn([C@H]3C=C[C@H](NC(=O)C[C@@H](N)CCN(C)C(=N)N)[C@@H](C(=O)O)O3)c(=O)n2)cc1 [Blastimidine C3] | <1.1 | > 128 mg/L | 2.2 | 64 mg/L (≈ 115 µM) | 64 mg/L (≈ 115 µM) | 64 to 128 mg/L (≈ 115 to 230 µM) | > 128 mg/L | 1.1 | 128 mg/L (≈ 230 µM) | 1.1 | 128 mg/L (≈ 230 µM) | <1.1 | > 128 mg/L | > 128 mg/L | 142 mg/L (≈ 256 µM) | <1.1 | > 128 mg/L | <1.1 | > 128 mg/L | <1.1 | Selectivity index (CC50/MIC) VRE NR-31909 [2]: 2.2; Selectivity index (CC50/MIC) K. pneumoniae [3]: 1.7; MIC (MRSA ATCC 43300): > 128 mg/L
5 | COC(=O)[C@H]1O[C@@H](n2ccc(NC(=O)c3ccc(NC(C)=O)cc3)nc2=O)C=C[C@@H]1NC(=O)C[C@@H](N)CCN(C)C(=N)N [Blastimidine M4] | <1.6 | > 128 mg/L | 6.6 | 32 mg/L (≈ 53.5 µM) | 128 mg/L (≈ 214 µM) | 32 mg/L (≈ 53.5 µM) | > 128 mg/L | 3.3 | 64 mg/L (≈ 107 µM) | 3.3 | 64 mg/L (≈ 107 µM) | 3.3 | 64 mg/L (≈ 107 µM) | 64 mg/L (≈ 107 µM) | 210 mg/L (≈ 351 µM) | 9.9 | 16 to 32 mg/L (≈ 26.8 to 53.5 µM) | 6.6 | 32 mg/L (≈ 53.5 µM) | 6.6 | Selectivity index (CC50/MIC) VRE NR-31909 [2]: 1.6; Selectivity index (CC50/MIC) K. pneumoniae [3]: 6.6; MIC (MRSA ATCC 43300): 32 mg/L (≈ 53.5 µM)
